According to patent US5726325A, “Tricyclic compounds” (Kyowa Hakko Kogyo Co., Ltd., priority 1995, dated 1998):

Experiments:
detrusor muscle [1] = assay: Test Example 2: relaxation of guinea pig bladder strips, rhythmical contraction induced by 15 mM KCl; assay type: cell-based, guinea pig (male albino Hartley); details: Cavia porcellus, concentration decreasing detrusor contraction by 50%
Excerpt: (§1) The activity of Compound (I) as a smooth muscle relaxant which is useful as a therapeutic agent for urinary incontinence can be observed, for example, using the following tests. In the following Test Examples 1 and 2, "IC50 " means the concentration of a test compound which induces the decrease in the contraction of detrusor muscle by 50%.
(§2) Male albino Hartley guinea pigs (350-550 g) were used as test animals. Each animal was exsanguinated to death under pentobarbital sodium anesthesia. The lower abdominal cavity was opened and its bladder was positioned. The connective tissue and the fat tissue around the bladder were removed, and the bladder was cleaned. After two pelvic nerves on the surface of the abdominal side of the bladder were dissected, the bladder was taken out on the entrance of ureter. The bladder was washed with a Krebs-Henseleit buffer [composition (mM): NaCl 118, KCl 4.7, MgSO4 1.2, KH2 PO4 1.2, CaCl2 2.5, NaHCO3 25, and D-glucose 11.1], and then put on a gauze patch soaked in the buffer in a Petri dish. The dome and the trigone of the bladder were dissected and discarded. The back of the bladder was cut vertically in the middle with scissors, and the bladder was put flat on the gauze patch. The dome tip and the side of the trigone of the bladder were dissected and discarded, and the mucosa of the bladder was removed. The back of the bladder was cut vertically to get 6 strips which are ca. 2.0 mm wide and ca. 10 mm long.
(§3) One end of each strip was fixed on a plastic supporter rod, and the other end was fixed on a clip connected to a suture thread. The supporter was fixed in 20 ml of an organ bath and the suture thread connected to the clip was fixed on a force-displacement transducer (NIHON KODEN TB-611T). The tissue was suspended in a Krebs-Henseleit buffer, and the bath solution was warmed to 37° C. and bubbled with a gas mixture of 5% CO2 and 95% O2. The pH of the solution was adjusted to about 7.4. The transducer was connected to a polygraph (NIHON KODEN AP-621G), and the change of tension was recorded on a recorder (YOKOGAWA type 3066). The polygraph was graduated by 0.5 g/cm.
The effect of a smooth muscle relaxant varies with the concentration of KCl based on the difference of an action mechanism. In the following Test Example, KCl was used at a concentration different from that in Test Example 1.
A sample of the excised bladder was prepared in the same manner as in Test Example 1, and the tension of the preparation was measured. After the tension of the tissue was adjusted to be a steady state at 1 g, 15 mM KCl was applied. After the rhythmical contraction was confirmed to appear by KCl, the tissue was washed. Then, 15 mM KCl was applied again. After the rhythmical contraction took place constantly and the tissue reached the steady state, a test compound was applied by the cumulative method (half-logarithmic incremence). The contact time at each concentration was 30 minutes. The activity of the compound was expressed as the maximum relaxation rate (%) of the tension induced by the agonist.

bladder = assay: Test Example 4: micturition contraction interval in rats under partial restraint, oral; assay type: in vivo, rat (male SD strain); details: Rattus norvegicus, 0.1 mg/kg oral, pre-administration = 100
Excerpt: As a control compound, cromakalim was used.

detrusor muscle [2] = assay: Test Example 1: relaxation of guinea pig bladder strips contracted with 50 mM KCl; assay type: cell-based, guinea pig (male albino Hartley); details: Cavia porcellus; contraction induced by 50 mM KCl; concentration decreasing detrusor contraction by 50%
Excerpt: as §1, §2, §3
After the tissue was incubated in the buffer for 15 minutes without preloading, tension was added thereto for about one hour. The preloading tension added was 1.5 g and it was relaxed to about 1 g. The tissue was washed at intervals of 15 minutes and the tension was adjusted to 1.5 g just before washing. The tension of the tissue was adjusted to be a steady state at 1 g. After this equilibrium time, 50 mM KCl (the whole content in the bath) was added, and the tissue was washed 10 minutes later. KCl was added to the tissue at intervals of 30 minutes, followed by washing 10 minutes later, and KCl was applied repeatedly until the developed tension induced by KCl becomes constant. When the tissue was confirmed to contract constantly by the application of KCl and relax to the steady state after washing, 50 mM KCl was applied again. After the tissue reached the steady state and the base line was obtained, a test compound was applied by the cumulative method (half-logarithmic incremence). The contact time at each concentration was 30 minutes. The activity of the compound was expressed as the maximum relaxation rate (%) of the tension induced by the agonist.

Compound	IC50 (detrusor muscle [1]) [µM]	IC50 (detrusor muscle [2]) [µM]	also measured
C[C@](O)(C(=O)Nc1cccc2c1C(=O)c1sccc1CO2)C(F)(F)F [Compound 33, (S)-9-(3,3,3-trifluoro-2-hydroxy-2-methylpropanoylamino)-4,10-dihydrothieno[3,2-c][1]benzoxepin-10-one]	2.7	1.1	response vs control in vivo at 0.1 mg/kg (bladder; 1 hr after administration): 135 ± 21.7%; response vs control in vivo at 0.1 mg/kg (bladder; 2 hr after administration): 146 ± 25.5%; response vs control in vivo at 0.1 mg/kg (bladder; 3 hr after administration): 143 ± 24.4%; response vs control in vivo at 0.1 mg/kg (bladder; 4 hr after administration): 156 ± 30.6%; response vs control in vivo at 0.1 mg/kg (bladder; 5 hr after administration): 161 ± 37.4%
C[C@@](O)(C(=O)Nc1cccc2c1C(=O)c1ccoc1CO2)C(F)(F)F [Compound 36, (R)-5-(3,3,3-Trifluoro-2-hydroxy-2-methylpropanoylamino)-4,10-dihydrofuro[2,3-c][1]benzoxepin-4-one]	1.3	8.3	–
COc1ccc(NC(=O)C(C)(O)C(F)(F)F)c2c1OCc1ccccc1C2=O (stereo not shown) [Compound 23]	7.8	> 10	–
CC(O)(C(=O)Nc1ccc2c(c1)SCc1occc1C2=O)C(F)(F)F (stereo not shown) [Compound 43, 7-(3,3,3-Trifluoro-2-hydroxy-2-methylpropanoylamino)-4,10-dihydrofuro[2,3-c][1]benzothiepin-4-one]	2.1	3.5	–
CC(O)(C(=O)Nc1cccc2c1-c1ccccc1C2=O)C(F)(F)F (stereo not shown) [Compound 14, 4-(3,3,3-Trifluoro-2-hydroxy-2-methylpropanoylamino)fluoren-9-one]	2.3	5.7	–
CC(O)(C(=O)Nc1ccc2c(c1)OCc1c(F)cccc1C2=O)C(F)(F)F (stereo not shown) [Compound 21, 7-Fluoro-3-(3,3,3-trifluoro-2-hydroxy-2-methylpropanoylamino)-6,11-dihydrodibenz[b,e]oxepin-11-one]	> 10	4.3	–
CC(O)(C(=O)Nc1ccc2c(c1)-c1ccccc1C2=O)C(F)(F)F (stereo not shown) [Compound 6, 3-(3,3,3-Trifluoro-2-hydroxy-2-methylpropanoylamino)fluoren-9-one]	11.2	6.1	–
Cc1ccc(NC(=O)C(C)(O)C(F)(F)F)c2c1OCc1ccsc1C2=O (stereo not shown) [Compound 26, 6-Methyl-9-(3,3,3-trifluoro-2-hydroxy-2-methylpropanoylamino)-4,10-dihydrothieno[3,2-c][1]-benzoxepin-10-one]	> 10	7.1	–
CC(O)(C(=O)Nc1ccc2c(c1)[S+]([O-])Cc1ccccc1C2=O)C(F)(F)F (stereo not shown) [Compound 49, 5-Oxo-3-(3,3,3-trifluoro-2-hydroxy-2-methylpropanoylamino)-6,11-dihydrodibenzo[b,e]thiepin-11-one]	4.1	7.8	–
COc1ccc(NC(=O)C(C)(O)C(F)(F)F)c2c1OCc1ccsc1C2=O (stereo not shown) [Compound 27, 6-Methoxy-9-(3,3,3-trifluoro-2-hydroxy-2-methylpropanoylamino)-4,10-dihydrothieno[3,2-c][1]-benzoxepin-10-one]	> 10	4.8	–
CC(O)(C(=O)Nc1cccc2ccc3ccsc3c(=O)c12)C(F)(F)F (stereo not shown) [Compound 63, 9-(3,3,3-Trifluoro-2-hydroxy-2-methylpropanoylamino)-10H-benzo[5,6]cyclohepta[1,2-b]thiophen-10-one]	> 10	3.3	–
CC(O)(C(=O)Nc1cccc2ccc3ccccc3c(=O)c12)C(F)(F)F (stereo not shown) [Compound 60, 4-(3,3,3-Trifluoro-2-hydroxy-2-methylpropanoylamino)-5H-dibenzo[a,d]cyclohepten-5-one]	4.1	> 10	–
CC(O)(C(=O)Nc1cc2c(cc1Cl)-c1ccccc1C2=O)C(F)(F)F (stereo not shown) [Compound 11, 3-Chloro-2-(3,3,3-trifluoro-2-hydroxy-2-methyl-propanoylamino)fluoren-9-one]	2.2	2	–
CC(O)(C(=O)Nc1ccc2ccc3ccccc3c(=O)c2c1)C(F)(F)F (stereo not shown) [Compound 61, 3-(3,3,3-Trifluoro-2-hydroxy-2-methylpropanoylamino)-5H-dibenzo[a,d]cyclohepten-5-one]	2.3	3.2	–
CC(O)(C(=O)Nc1ccc2c(c1)C(=O)c1cc(Br)ccc1-2)C(F)(F)F (stereo not shown) [Compound 13, 7-Bromo-2-(3,3,3-trifluoro-2-hydroxy-2-methylpropanoylamino)fluoren-9-one]	48	3.5	–
C[C@](O)(C(=O)Nc1ccc2c(c1)C(=O)c1sccc1CO2)C(F)(F)F [Compound 39, (S)-8-(3,3,3-Trifluoro-2-hydroxy-2-methylpropanoylamino)-4,10-dihydrothieno[3,2-c][1]benzoxepin-10-one]	2.6	> 10	–
Cc1cc2c(cc1NC(=O)C(C)(O)C(F)(F)F)OCc1ccccc1C2=O (stereo not shown) [Compound 25, 2-Methyl-3-(3,3,3-trifluoro-2-hydroxy-2-methylpropanoylamino)-6,11-dihydrodibenz[b,e]oxepin-11-one]	> 10	2.2	–
CC(O)(C(=O)Nc1ccc2c(c1)SCc1ccccc1C2=O)C(F)(F)F (stereo not shown) [Compound 41, 3-(3,3,3-Trifluoro-2-hydroxy-2-methylpropanoylamino)-6,11-dihydrodibenzo[b,e]thiepin-11-one]	1.6	2.1	–
CC(O)(C(=O)Nc1cc2c(cc1Br)-c1ccccc1C2=O)C(F)(F)F (stereo not shown) [Compound 12, 3-Bromo-2-(3,3,3-trifluoro-2-hydroxy-2-methylpropanoylamino)fluoren-9-one]	3.2	3.8	–
C[C@@](O)(C(=O)Nc1cccc2c1C(=O)c1sccc1CO2)C(F)(F)F [Compound 34, (R)-9-(3,3,3-Trifluoro-2-hydroxy-2-methylpropanoylamino)-4,10-dihydrothieno[3,2-c][1]benzoxepin-10-one]	2.2	1.6	–
CC(O)(C(=O)Nc1ccc2c(=O)c3sccc3ccc2c1)C(F)(F)F (stereo not shown) [Compound 65, 7-(3,3,3-Trifluoro-2-hydroxy-2-methylpropanoylamino)-10H-benzo[5,6]cyclohepta[1,2-b]thiophen-10-one]	2.3	4.6	–
Cc1ccc(NC(=O)C(C)(O)C(F)(F)F)c2c1OCc1ccccc1C2=O (stereo not shown) [Compound 22]	> 10	4.2	–
CC(O)(C(=O)Nc1ccc2c(c1)OCc1sccc1C2=O)C(F)(F)F (stereo not shown) [Compound 18, 7-(3,3,3-Trifluoro-2-hydroxy-2-methylpropanoylamino)-4,10-dihydrothieno[2,3-c][1]benzoxepin-4-one]	2.1	> 10	–
CC(O)(C(=O)Nc1ccc2c(=O)c3occc3ccc2c1)C(F)(F)F (stereo not shown) [Compound 68, 7-(3,3,3-Trifluoro-2-hydroxy-2-methylpropanoylamino)-10H-benzo[5,6]cyclohepta[1,2-b]furan-10-one]	3.5	> 10	–
CC(O)(C(=O)Nc1ccc2c(c1)CCc1ncccc1C2=O)C(F)(F)F (stereo not shown) [Compound 59, 8-(3,3,3-Trifluoro-2-hydroxy-2-methylpropanoylamino)-10,11-dihydro-5H-benzo[4,5]cyclohepta[1,2-b]pyridin-5-one]	5	> 10	–
